Read-outs that look alike come from different tables or passages of the source.
Tests used:
Assay type in all cases: biochemical
JAK2 = JAK2 (Homo sapiens (Human), UniProt O60674); test: Enzyme assay (Assay Example^a 1), JAK2
Tyk2 = Tyk2 (Homo sapiens (Human), UniProt P29597); test: Enzyme assay (Assay Example^a 1), Tyk2; conditions: ATP 100 μM
JAK1 = JAK1 (Homo sapiens (Human), UniProt P23458); test: Enzyme assay (Assay Example^a 1), JAK1; conditions: ATP 100 μM
JAK3 = JAK3 (Homo sapiens (Human), UniProt P52333); test: Enzyme assay (Assay Example^a 1), JAK3; conditions: ATP 100 μM
Sequence of JAK3 (P52333 whole entry): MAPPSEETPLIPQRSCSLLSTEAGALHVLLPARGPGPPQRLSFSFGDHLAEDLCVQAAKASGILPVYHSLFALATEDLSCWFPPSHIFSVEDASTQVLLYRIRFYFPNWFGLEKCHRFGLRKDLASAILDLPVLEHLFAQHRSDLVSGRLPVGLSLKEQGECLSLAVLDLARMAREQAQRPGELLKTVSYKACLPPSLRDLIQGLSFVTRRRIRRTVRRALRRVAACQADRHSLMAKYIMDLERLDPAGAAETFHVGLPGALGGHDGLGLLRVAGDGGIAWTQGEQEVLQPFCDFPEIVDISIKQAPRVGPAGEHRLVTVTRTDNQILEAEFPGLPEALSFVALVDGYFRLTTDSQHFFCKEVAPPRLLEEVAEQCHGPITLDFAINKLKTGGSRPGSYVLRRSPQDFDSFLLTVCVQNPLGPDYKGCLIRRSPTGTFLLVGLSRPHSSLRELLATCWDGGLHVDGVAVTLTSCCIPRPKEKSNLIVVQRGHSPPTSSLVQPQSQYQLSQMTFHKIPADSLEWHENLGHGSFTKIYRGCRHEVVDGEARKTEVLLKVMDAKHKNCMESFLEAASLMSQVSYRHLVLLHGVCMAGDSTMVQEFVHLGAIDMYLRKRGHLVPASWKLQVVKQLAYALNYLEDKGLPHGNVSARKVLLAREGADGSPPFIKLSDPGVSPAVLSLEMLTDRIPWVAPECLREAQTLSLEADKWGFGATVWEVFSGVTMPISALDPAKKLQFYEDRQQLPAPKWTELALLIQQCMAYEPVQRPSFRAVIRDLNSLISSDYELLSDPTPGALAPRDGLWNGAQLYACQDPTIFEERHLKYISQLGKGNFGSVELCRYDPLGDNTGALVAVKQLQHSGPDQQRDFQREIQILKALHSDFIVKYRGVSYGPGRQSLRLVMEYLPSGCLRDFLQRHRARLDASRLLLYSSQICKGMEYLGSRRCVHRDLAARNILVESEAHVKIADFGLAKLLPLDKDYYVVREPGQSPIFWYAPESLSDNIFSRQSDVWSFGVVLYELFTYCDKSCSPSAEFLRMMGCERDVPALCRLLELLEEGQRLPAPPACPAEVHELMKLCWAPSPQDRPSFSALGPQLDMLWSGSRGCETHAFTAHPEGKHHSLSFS

Sequence of Tyk2 (P29597 whole entry): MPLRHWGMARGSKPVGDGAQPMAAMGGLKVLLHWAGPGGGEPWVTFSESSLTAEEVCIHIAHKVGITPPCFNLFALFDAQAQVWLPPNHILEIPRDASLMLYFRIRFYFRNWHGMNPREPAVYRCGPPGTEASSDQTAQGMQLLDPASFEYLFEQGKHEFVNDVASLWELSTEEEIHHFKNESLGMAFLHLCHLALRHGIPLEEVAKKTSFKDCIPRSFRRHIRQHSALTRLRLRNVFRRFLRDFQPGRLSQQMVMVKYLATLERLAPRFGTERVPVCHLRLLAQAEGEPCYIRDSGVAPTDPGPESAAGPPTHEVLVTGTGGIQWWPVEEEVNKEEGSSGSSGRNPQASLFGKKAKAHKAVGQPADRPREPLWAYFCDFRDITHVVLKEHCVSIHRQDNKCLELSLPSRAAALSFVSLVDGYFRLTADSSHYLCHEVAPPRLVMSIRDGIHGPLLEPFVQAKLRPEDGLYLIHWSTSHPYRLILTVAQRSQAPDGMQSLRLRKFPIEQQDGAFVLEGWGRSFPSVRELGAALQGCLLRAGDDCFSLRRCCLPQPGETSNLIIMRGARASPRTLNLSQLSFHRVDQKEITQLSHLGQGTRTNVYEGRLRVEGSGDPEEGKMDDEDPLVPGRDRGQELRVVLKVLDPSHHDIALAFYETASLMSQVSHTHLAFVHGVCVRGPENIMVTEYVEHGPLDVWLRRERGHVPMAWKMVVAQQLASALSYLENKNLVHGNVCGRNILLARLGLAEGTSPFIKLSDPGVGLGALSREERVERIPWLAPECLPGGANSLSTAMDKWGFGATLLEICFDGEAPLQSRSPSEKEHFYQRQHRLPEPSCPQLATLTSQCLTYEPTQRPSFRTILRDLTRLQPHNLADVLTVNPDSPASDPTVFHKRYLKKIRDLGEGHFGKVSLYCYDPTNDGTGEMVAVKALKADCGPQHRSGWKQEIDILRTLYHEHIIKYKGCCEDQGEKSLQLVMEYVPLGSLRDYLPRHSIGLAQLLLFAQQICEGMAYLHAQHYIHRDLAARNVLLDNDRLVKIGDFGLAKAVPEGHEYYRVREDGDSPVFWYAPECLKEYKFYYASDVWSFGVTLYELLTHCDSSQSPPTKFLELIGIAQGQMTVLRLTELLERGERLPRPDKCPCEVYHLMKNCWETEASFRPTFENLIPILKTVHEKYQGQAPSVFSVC

SMILES | IC50 (JAK2; ATP 100 μM) [µM] | IC50 (Tyk2) [µM] | IC50 (JAK1) [µM] | IC50 (JAK3) [µM] | IC50 (JAK2; ATP 100 μM, Table^a 154) [µM] | IC50 (Tyk2; Table^a 154) [µM] | IC50 (JAK1; Table^a 154) [µM] | IC50 (JAK3; Table^a 154) [µM] | IC50 (JAK2) [µM]
N#CC=C1CCC(c2nnn3cnc4[nH]ccc4c23)CC1 (stereo not shown) [compound 434, 2-[4-(7H-pyrrolo[3,2-e][1,2,3]triazolo[1,5-c]pyrimidin-1-yl)cyclohexylidene]acetonitrile] | 0.014 | 0.034 | 0.0023 | 0.49 | – | – | – | – | –
CC(=O)N[C@H]1CCN(C[C@H]2CC[C@H](c3nnn4cnc5[nH]ccc5c34)CC2)C1 [compound 319, N-((S)-1-{[trans-4-(7H-pyrrolo[3,2-e][1,2,3]triazolo[1,5-c]pyrimidin-1-yl)cyclohexyl]methyl}pyrrolidin-3-yl)acetamide] | 0.23 | > 1 | 0.027 | > 1 | – | – | – | – | –
O=C(CN[C@H]1CC[C@H](c2nnn3cnc4[nH]ccc4c23)CC1)NCC(F)(F)F [384b, 2-{[trans-4-(7H-pyrrolo[3,2-e][1,2,3]triazolo[1,5-c]pyrimidin-1-yl)cyclohexyl]amino}-N-(2,2,2-trifluoroethyl)acetamide] | 0.08 | > 1 | 0.022 | > 1 | – | – | – | – | –
O=C1COc2ccc(CN3CCC(c4nnn5cnc6[nH]ccc6c45)CC3)cc2N1 [compound 225, 6-{[4-(7H-pyrrolo[3,2-e][1,2,3]triazolo[1,5-c]pyrimidin-1-yl)piperidin-1-yl]methyl}-2H-benzo[b][1,4]oxazin-3(4H)-one] | 0.2 | > 1 | 0.021 | > 1 | – | – | – | – | –
N#CCCN1CCN(C[C@H]2CC[C@H](c3nnn4cnc5[nH]ccc5c34)CC2)CC1 [compound 314, 3-(4-{[trans-4-(7H-pyrrolo[3,2-e][1,2,3]triazolo[1,5-c]pyrimidin-1-yl)cyclohexyl]methyl}piperazin-1-yl)propanenitrile] | 0.19 | 0.75 | 0.008 | > 1 | – | – | – | – | –
c1cc2c(ncn3nnc([C@H]4CC[C@H](CN5CCCC5)CC4)c23)[nH]1 [compound 287, 1-[trans-4-(pyrrolidin-1-ylmethyl)cyclohexyl]-7H-pyrrolo[3,2-e][1,2,3]triazolo[1,5-c]pyrimidine] | 0.077 | 0.33 | 0.0065 | > 1 | – | – | – | – | –
N#Cc1ccc(NC[C@H]2CC[C@H](c3nnn4cnc5[nH]ccc5c34)CC2)c2ccccc12 [compound 248, 4-({[trans-4-(7H-pyrrolo[3,2-e][1,2,3]triazolo[1,5-c]pyrimidin-1-yl)cyclohexyl]methyl}amino)-1-naphthonitrile] | 0.14 | > 1 | 0.041 | > 1 | – | – | – | – | –
OC12CC3CC(C1)CC(c1nnn4cnc5[nH]ccc5c14)(C3)C2 [compound 445, 3-(7H-Pyrrolo[3,2-e][1,2,3]triazolo[1,5-c]pyrimidin-1-yl)adamantan-1-ol] | 0.13 | 0.052 | 0.031 | 0.22 | – | – | – | – | –
c1cc2c(ncn3nnc([C@H]4CC[C@H](CN5CCC(N6CCOCC6)CC5)CC4)c23)[nH]1 [compound 334, 4-(1-{[trans-4-(7H-pyrrolo[3,2-e][1,2,3]triazolo[1,5-c]pyrimidin-1-yl)cyclohexyl]methyl}piperidin-4-yl)morpholine] | > 1 | > 1 | 0.064 | > 1 | – | – | – | – | –
NC(=O)C1CCN(C[C@H]2CC[C@H](c3nnn4cnc5[nH]ccc5c34)CC2)CC1 [compound 261, 1-{[trans-4-(7H-pyrrolo[3,2-e][1,2,3]triazolo[1,5-c]pyrimidin-1-yl)cyclohexyl]methyl}piperidine-4-carboxamide] | 0.091 | 0.64 | 0.023 | > 1 | – | – | – | – | –
O=C(N[C@H]1CC[C@H](c2nnn3cnc4[nH]ccc4c23)CC1)OCc1ccccc1 [compound 60] | – | – | – | – | – | 4.2 | 0.0051 | > 1 | 0.032
FC(F)(F)C(F)(F)CN[C@H]1CC[C@H](c2nnn3cnc4[nH]ccc4c23)CC1 [383b, trans-N-(2,2,3,3,3-pentafluoropropyl)-4-(7H-pyrrolo[3,2-e][1,2,3]triazolo[1,5-c]pyrimidin-1-yl)cyclohexanamine] | 0.013 | 0.17 | 0.0015 | 0.5 | – | – | – | – | –
FC(F)(F)COC1CN(C[C@H]2CC[C@H](c3nnn4cnc5[nH]ccc5c34)CC2)C1 [compound 421, 1-(trans-4-{[3-(2,2,2-Trifluoroethoxy)azetidin-1-yl]methyl}cyclohexyl)-7H-pyrrolo[3,2-e][1,2,3]triazolo[1,5-c]pyrimidine] | 0.17 | > 1 | 0.01 | > 1 | – | – | – | – | –
CS(=O)(=O)c1ccc2c(c1)CCN2C[C@H]1CC[C@H](c2nnn3cnc4[nH]ccc4c23)CC1 [compound 189, 1-(trans-4-{[5-(methylsulfonyl)indolin-1-yl]methyl}cyclohexyl)-7H-pyrrolo[3,2-e][1,2,3]triazolo[1,5-c]pyrimidine] | – | – | – | – | 0.038 | 0.38 | 0.011 | 0.61 | –
CCS(=O)(=O)N1CCN(C[C@H]2CC[C@H](c3nnn4cnc5[nH]ccc5c34)CC2)CC1 [compound 345, 1-(trans-4-{[4-(ethylsulfonyl)piperazin-1-yl]methyl}cyclohexyl)-7H-pyrrolo[3,2-e][1,2,3]triazolo[1,5-c]pyrimidine] | 0.2 | > 1 | 0.025 | > 1 | – | – | – | – | –

Continued, in another order:

IC50 (JAK2; ATP 100 μM) [µM] | IC50 (Tyk2) [µM] | IC50 (JAK1) [µM] | IC50 (JAK3) [µM] | IC50 (JAK2; ATP 100 μM, Table^a 154) [µM] | IC50 (Tyk2; Table^a 154) [µM] | IC50 (JAK1; Table^a 154) [µM] | IC50 (JAK3; Table^a 154) [µM] | SMILES | IC50 (JAK2) [µM]
0.012 | 0.046 | 0.0038 | 0.15 | – | – | – | – | c1cc2c(ncn3nnc(C4CCCCC4)c23)[nH]1 [compound 6] | –
0.059 | 0.32 | 0.01 | 0.31 | – | – | – | – | O=C(CNC[C@H]1CC[C@H](c2nnn3cnc4[nH]ccc4c23)CC1)NCC(F)(F)F [compound 341, 2-({[trans-4-(7H-pyrrolo[3,2-e][1,2,3]triazolo[1,5-c]pyrimidin-1-yl)cyclohexyl]methyl}amino)-N-(2,2,2-trifluoroethyl)acetamide] | –
0.04 | 0.58 | 0.022 | 0.32 | – | – | – | – | Cc1ccc(CN(C[C@H]2CC[C@H](c3nnn4cnc5[nH]ccc5c34)CC2)C(=O)CC#N)o1 [compound 410, N-{[trans-4-(7H-pyrrolo[3,2-e][1,2,3]triazolo[1,5-c]pyrimidin-1-yl)cyclohexyl]methyl}-2-cyano-N-[(5-methylfuran-2-yl)methyl]acetamide] | –
0.032 | 0.84 | 0.019 | 0.92 | – | – | – | – | N#CCC(=O)N(C[C@H]1CC[C@H](c2nnn3cnc4[nH]ccc4c23)CC1)C1CC1 [compound 409, N-{[trans-4-(7H-pyrrolo[3,2-e][1,2,3]triazolo[1,5-c]pyrimidin-1-yl)cyclohexyl]methyl}-2-cyano-N-cyclopropylacetamide] | –
0.0044 | 0.1 | 0.0016 | 0.17 | – | – | – | – | Clc1ccc(CN2CCC(c3nnn4cnc5[nH]ccc5c34)CC2)o1 [compound 228, 1-{1-[(5-chlorofuran-2-yl)methyl]piperidin-4-yl}-7H-pyrrolo[3,2-e][1,2,3]triazolo[1,5-c]pyrimidine] | –
0.03 | 0.38 | 0.0062 | 0.79 | – | – | – | – | N#CCN[C@H]1CC[C@H](c2nnn3cnc4[nH]ccc4c23)CC1 [393b, 2-{[trans-4-(7H-pyrrolo[3,2-e][1,2,3]triazolo[1,5-c]pyrimidin-1-yl)cyclohexyl]amino}acetonitrile] | –
0.019 | 0.14 | 0.0053 | 0.28 | – | – | – | – | N#CCN1CCC(c2nnn3cnc4[nH]ccc4c23)CC1 [compound 246, 2-[4-(7H-pyrrolo[3,2-e][1,2,3]triazolo[1,5-c]pyrimidin-1-yl)piperidin-1-yl]acetonitrile] | –
0.016 | 0.41 | 0.0041 | 0.23 | – | – | – | – | N#CCC(=O)NC[C@H]1CC[C@H](c2nnn3cnc4[nH]ccc4c23)CC1 [compound 372, N-{[trans-4-(7H-Pyrrolo[3,2-e][1,2,3]triazolo[1,5-c]pyrimidin-1-yl)cyclohexyl]methyl}-2-cyanoacetamide] | –
– | – | – | – | 0.039 | 0.016 | 0.0054 | 0.28 | Cc1ccc(CNC[C@H]2CC[C@H](c3nnn4cnc5[nH]ccc5c34)CC2)o1 [compound 182, 1-[trans-4-(7H-pyrrolo[3,2-e][1,2,3]triazolo[1,5-c]pyrimidin-1-yl)cyclohexyl]-N-[(5-methylfuran-2-yl)methyl]methanamine] | –
0.0025 | 0.028 | 0.002 | 0.2 | – | – | – | – | N#CCCN(CCC#N)C1CCC(c2nnn3cnc4[nH]ccc4c23)CC1 (stereo not shown) [compound 380, 3,3′-{[4-(7H-pyrrolo[3,2-e][1,2,3]triazolo[1,5-c]pyrimidin-1-yl)cyclohexyl]azanediyl}dipropanenitrile] | –
0.031 | 0.21 | 0.0019 | 0.18 | – | – | – | – | OC(CN[C@H]1CC[C@H](c2nnn3cnc4[nH]ccc4c23)CC1)(c1cccnc1)C(F)(F)F (stereo partly drawn) [385b, 3-{[trans-4-(7H-pyrrolo[3,2-e][1,2,3]triazolo[1,5-c]pyrimidin-1-yl)cyclohexyl]amino}-1,1,1-trifluoro-2-(pyridin-3-yl)propan-2-ol] | –
0.031 | 0.14 | 0.0053 | 0.54 | – | – | – | – | N#C/C=C/[C@H]1CC[C@H](c2nnn3cnc4[nH]ccc4c23)CC1 [compound 440, (E)-3-[trans-4-(7H-Pyrrolo[3,2-e][1,2,3]triazolo[1,5-c]pyrimidin-1-yl)cyclohexyl]acrylonitrile] | –
0.053 | 0.094 | 0.0035 | 0.43 | – | – | – | – | OCCNC[C@H]1CC[C@H](c2nnn3cnc4[nH]ccc4c23)CC1 [compound 272, 2-({[trans-4-(7H-pyrrolo[3,2-e][1,2,3]triazolo[1,5-c]pyrimidin-1-yl)cyclohexyl]methyl}amino)ethanol] | –

— US9216999B2, “Substituted pyrrolo[2,3-h][1,6]naphthyridines and compositions thereof as JAK inhibitors” (priority 2011, dated 2015)
